Experimental data taken from patent US12716903B2, “Microfluidic chip-based, universal coagulation assay” (Perosphere Technologies Inc., priority 2014, dated 2026).

Tested on: blood
Test: Blood clotting time on microfluidic closed device chip, by IR light transmission and impedance
Parameters: species or system patient
Conditions: PER977 added to blood sample containing edoxaban, both at 300 ng/mL; IR and impedance curves; room temperature
Procedure: For detection of clotting through measurement of impedances, a sample is loaded into the chip, the chip is inserted into its reader, and the pogo pins connecting to the internal impedance electrodes connected via Kelvin clip leads to a QuadTech 1920 LCR meter. The magnitude and the phase of the complex impedance of the blood sample were recorded at 15 second intervals. […] The peaks or plateaus indicated a measure for the clotting time.
For optical clot detection, IR LED and photodiode are inserted into their reader parts as described above. A blood sample is pipetted into the chip and the chip placed into the reader. The sample is continuously illuminated with IR light at 1,300 nm. At time intervals of typically 100 ms, the voltage drop across a 1 MOhm resistor caused by the photocurrent of the photodiode was recorded. Voltages typically measured several volts. Clotting of the sample caused the transmitted light and the photocurrent to vary over time. Characteristic peaks of the transmitted light curve indicated a measure for the clotting time.
Blood was harvested from a patient using commercially available lancing devices. 10 μL of blood were obtained and pipetted into an Eppendorf tube. […]
Edoxaban is a commercially available anticoagulant. […] The chip was inserted into its reader, and both IR light and impedance measurements were immediately recorded at room temperature (approximately 27° C.). […]

N=C(N)NCCC[C@H](N)C(=O)NCCCN1CCN(CCCNC(=O)[C@@H](N)CCCNC(=N)N)CC1 [PER977, ciraparantag]
characteristic peak indicative of the sample clotting time: 2 min | occurrence of a local minimum around 12 minutes: suppresses the occurrence of a local minimum
